Measured values from patent US20260008793A1, “IONIZABLE CATIONIC LIPIDS INCORPORATING SILICON” (ALDEXCHEM KFT., priority 2022, published 2026).

What was measured:
[1] = LNP size, PDI and zeta potential by Dynamic Light Scattering (Method A); type: physicochemical; conditions: LNP formulated by Method A; for Zeta potential (mV): 1xPBS pH 7.4; for PDI / Size (nm): DLS; for Size (nm): Luciferase-mRNA loaded
Protocol: (§1) The synthesized lipids were tested in term of in vitro transfection efficacy and toxicity on HeLa cells. In order to perform the mentioned biological tests, appropriate LNPs had to be formulated from the synthesized lipids. The formulation technique was different in Method A and B. The particle size, PDI and zeta potential of resulting LNPs were determined by means of Dynamic Light Scattering technique (DLS). Prior to biological testing the encapsulation efficiency (EE) of the loaded LNPs was determined by using RiboGreen RNA assay. In case of Method A Luciferase-mRNA while in case of Method B GFP-mRNA was transfected into the cells. In parallel with the transfection experiments, toxicity of the investigated LNPs was determined, in case of Method A resazurin assay while in case of Method B MTT assay was used. In the case of some lipids, the apparent pKa in LNPs was determined by using TNS titration based on the method described: Angew Chem Int Ed Engl. 2012, 51 (34), 8529-8533, doi: 10.1002/anie.201203263).
• 1. If needed, prepare stock solutions by solving known amounts of lipid powder into an appropriate solvent. The recommended solvent is Ethanol and the recommended concentration is typically in the range 10-50 mM. Higher concentrations are preferred to allow flexibility on mRNA-LNP concentration. • 2. Remove the lipid stock solutions from the −20° C. freezer. For long-term storage, −80° C. is used. • 3. Check the vials for precipitation, DOPE (CAS #4004-05-1) (20 mM) and DSPE-PEG (CAS #474922-26-4) (5 mM) may need a 5-30 minute incubation step at 37° C. with intermittent vortexing to resuspend all contents. […] As a last resort, lipids may be heated to 50° C. to resuspend, time should be kept as short as possible to prevent oxidation or other modifying or degradative processes. • 4. Mix the lipids by vortexing for 2 minutes. • 5. […] Cooling the solution prevent excessive evaporation of ethanol or similar solvents upon opening. • 6. Meanwhile, thaw the RNA samples, including the latest SecNLuc control, by inserting the frozen tube in a room temperature aluminium block. • 7. Prepare for each LNP-formulation with identical mRNA component, an RNA master mix according to Table 1 below in a fresh tube. Use of a master mix allows more precise comparison of lipid formulations relative to each other. Split the master mix over a number of fresh tubes equal to the number of samples+controls. Each tube contains 375 μl of mRNA in 10 mM Citrate pH 4.0. • 8. Prepare for each LNP formulation with identical lipid composition a Lipid master mix according to Table 1 below in a fresh tube, exclude the lipid of interest. Use of a master mix allows more precise comparison of the novel ionizable lipid relative to each other. Split the master mix over a number of fresh tubes equal to the number of samples+controls. Each tube contains 65.5 μl of lipid master mix. • 9. Add the ionizable lipid of interest to the equally divide lipid master mix. Mix well by pipetting up and down. Label the tube according to the ionizable lipid used. • 10. Power on the ‘L 1 formulation machine’ (L 1 FM) and allow it to do a calibration of motor positions.
• 18. Fill a fresh syringe (C) through a blunt 18 G stainless steel needle with the previously prepared RNA mixture of step 6. The volume should be approximately […] of total formulation volume+25 μl (dead-volume). Make sure to remove all air bubbles by tapping. • 19. Fill a fresh syringe (D) through a blunt 18 G stainless steel needle with the Lipid master mix. The volume should be approximately 35% of total formulation volume+25 μl (dead-volume). Again, Make sure to remove all bubbles. • 20. Attach the syringes in the correct orientation, syringe A on the left and syringe B on the right • 21. Load the ‘Receiving station’ with appropriate sized collection containers (2 ml Eppendorf tubes). • 22. Press the microfluidic chip to the back of the machine with your thumb and hold, press the ‘Button 1’ (40 g). […]

[2] = Encapsulation efficiency, RiboGreen RNA assay (Method A); type: physicochemical; conditions: LNP formulated by Method A
Protocol: as §1
• 1. Preparation of sample stock solutions: In the top row of the 96-well plate (Row A in the plate), add 297 μL of TE buffer pH 7.4 to a single well for each sample plus a single well for a PBS blank using a multichannel pipette. • 2. Add 3 μL of sample (at 0.5 mg/ml) to these wells for a final volume of 300 μL. Add 3 μL of PBS to the blank well. Pipette to mix. This is your stock solution for each sample. The final RNA concentration of these stock solutions should be approximately 4-7 μg/mL. • 3. mRNA-LNP sample setup: • a. Add 50 μL of TE buffer pH 7.5 to the two wells directly below each sample (Rows B and C in the plate). • b. Add 50 μL of sample stock solution from Row A into the wells in Rows B and C (this assay is run in duplicate. All liquid handling should be done using a multichannel pipette). • c. Add 50 μL of Triton buffer to the wells in Rows D and E (in the plate) below each sample. • d. Add 50 μL of sample stock solution from Row A into the wells in Rows D and E. • 4. RiboGreen RNA standard curve setup: Dilute the RNA standard to produce an RNA stock at a final concentration of 20 μg/mL in TE buffer pH 7.4. The final volume should be 150 μL. Set up a standard curve (in duplicate) as using the RNA stock (20 μg/mL siRNA), TE buffer pH 7.5, and Triton buffer according the Table 2 below.
• 5. Once samples and standard curve are plated, incubate the plate at 37° C. for 10 min to lyse mRNA-LNP in the presence of Triton X-100. • 6. Meanwhile, prepare RiboGreen Solution: Sum the total number of sample wells and standard curve wells. Add three to this number, and multiply the total by 100. This is the total volume, in μL, of RiboGreen Solution needed for this assay. In a 15 mL RNAse-free Falcon tube, dilute the RiboGreen Reagent 1:100 into TE buffer pH 7.5 to the total volume calculated. • 7. Addition of RiboGreen Solution and sample readings: Remove a 96-well plate from 37° C. incubator; let it cool to room temperature as RiboGreen binding is somewhat temperature dependent. Add 100 μL of RiboGreen Solution to each well. Pop any air bubbles with a needle. Read using fluorescent plate reader (excitation=480, emission=525). • 8. Sample analysis: Use the data generated by the RiboGreen standard curve to calculate the concentration of mRNA. Transfection Efficiency with Luciferase-mRNA (Method A)

Compound	Zeta potential (mV) [1]	PDI [1]	Size (nm) [1]	EE (%) [2]
CCCCCCCCC(CCCCCC)C(=O)OCCCCCCN(CCCCO)CCCCCCOC(=O)C(CCCCCC)CCCCCCCC (stereo not drawn) [ALC-0315, reference compound]	−11.12 mV	0.113	172.6 nm	94%
CCCCCCCC[Si](C)(C)OC(CCCCCCC)OCCCCCCN(CCCCO)CCCCCCOC(CCCCCCC)O[Si](C)(C)CCCCCCCC (stereo not drawn) [Example 102, 5-(6-((1-((dimethyl(octyl)silyl)oxy)octyl)oxy)hexyl)-13-heptyl-15,15-dimethyl-12,14-dioxa-5-aza-15-silatricosan-1-ol]	−3.4 mV	0.06	212.9 nm	96%
CCCCCCCCCC(OCCCCCCN(CCCCO)CCCCCCOC(CCCCCCCCC)O[Si](C)(C)CCCCCC)O[Si](C)(C)CCCCCC (stereo not drawn) [Example 104, 5-(6-((1-((hexyldimethylsilyl)oxy)decyl)oxy)hexyl)-15,15-dimethyl-13-nonyl-12,14-dioxa-5-aza-15-silahenicosan-1-ol]	−13.26 mV	0.043	184.4 nm	96%
CCCCCCCCOC(CCCCCN(CCCCO)CCCCCC(OCCCCCCCC)O[Si](C)(C)O[Si](C)(C)CCCCCCCC)O[Si](C)(C)O[Si](C)(C)CCCCCCCC (stereo not drawn) [Example 107, 4-(bis(6-(octyloxy)-6-((1,1,3,3-tetramethyl-3-octyldisiloxaneyl)oxy)hexyl)amino)butan-1-ol]	−11.69 mV	0.186	152.1 nm	96%
CCCCCCCC[Si](C)(C)O[Si](C)(C)OC(CCCCCCC)OCCCCCCN(CCCCO)CCCCCCOC(CCCCCCC)O[Si](C)(C)O[Si](C)(C)CCCCCCCC (stereo not drawn) [Example 108, 13-heptyl-15,15,17,17-tetramethyl-5-(6-((1-((1,1,3,3-tetramethyl-3-octyldisiloxaneyl)oxy)octyl)oxy)hexyl)-12,14,16-trioxa-5-aza-15,17-disilapentacosan-1-ol]	−14.24 mV	0.211	198.5 nm	94%
CCCCCCCCOC(CCCCCCC)O[Si](C)(C)CCCCCCN(CCCCO)CCCCCC[Si](C)(C)OC(CCCCCCC)OCCCCCCCC (stereo not drawn) [Example 113, 5-(6-(dimethyl((1-(octyloxy)octyl)oxy)silyl)hexyl)-14-heptyl-12,12-dimethyl-13,15-dioxa-5-aza-12-silatricosan-1-ol]	−5.00 mV	0.11	174.6 nm	94%
CCCCCCCCSC(CCCCCCC)O[Si](C)(C)OCCCCCCN(CCCCO)CCCCCCO[Si](C)(C)OC(CCCCCCC)SCCCCCCCC (stereo not drawn) [Example 115, 15-heptyl-5-(10-heptyl-8,8-dimethyl-7,9-dioxa-11-thia-8-silanonadecyl)-13,13-dimethyl-12,14-dioxa-16-thia-5-aza-13-silatetracosan-1-ol]	0.3 mV	0.13	130.2 nm	94%
CCCCCCCCOC(CCCCCN(CCCCCC(OCCCCCCCC)O[Si](C)(C)CCCCCCCC)CCC1CCCN1C)O[Si](C)(C)CCCCCCCC (stereo not drawn) [Example 116, 6-((dimethyl(octyl)silyl)oxy)-N-(6-((dimethyl(octyl)silyl)oxy)-6-(octyloxy)hexyl)-N-(2-(1-methylpyrrolidin-2-yl)ethyl)-6-(octyloxy)hexan-1-amine]	−14.17 mV	0.092	189.8 nm	96%
CCCCCCCCOC(CCCCCN(CCCCCC(OCCCCCCCC)O[Si](C)(C)O[Si](C)(C)CCCCCCCC)CCC1CCCN1C)O[Si](C)(C)O[Si](C)(C)CCCCCCCC (stereo not drawn) [Example 118, N-(2-(1-methylpyrrolidin-2-yl)ethyl)-6-(octyloxy)-N-(6-(octyloxy)-6-((1,1,3,3-tetramethyl-3-octyldisiloxaneyl)oxy)hexyl)-6-((1,1,3,3-tetramethyl-3-octyldisiloxaneyl)oxy)hexan-1-amine]	−15.92 mV	0.04	179.2 nm	98%
CCCCCCCC[Si](C)(C)OC(CCCCCCC)OCCCCCCN(CCCCCCOC(CCCCCCC)O[Si](C)(C)CCCCCCCC)CCC1CCCN1C (stereo not drawn) [Example 120, 6-((1-((dimethyl(octyl)silyl)oxy)octyl)oxy)-N-(6-((1-((dimethyl(octyl)silyl)oxy)octyl)oxy)hexyl)-N-(2-(1-methylpyrrolidin-2-yl)ethyl)hexan-1-amine]	−13.18 mV	0.055	161.4 nm	98%
CCCCCCCCO[Si](C)(C)OC(CCCCCCC)OCCCCCCN(CCCCCCOC(CCCCCCC)O[Si](C)(C)OCCCCCCCC)CCC1CCCN1C (stereo not drawn) [Example 121, 8-heptyl-N-(8-heptyl-10,10-dimethyl-7,9,11-trioxa-10-silanonadecyl)-10,10-dimethyl-N-(2-(1-methylpyrrolidin-2-yl)ethyl)-7,9,11-trioxa-10-silanonadecan-1-amine]	−11.47 mV	0.012	179.2 nm	98%
CCCCCCCCOC(CCCCCN(CCCCO)CCCCCCOC(=O)C(CCCCCC)CCCCCCCC)O[Si](C)(C)CCCCCCCC (stereo not drawn) [Example 128, 6-((6-((dimethyl(octyl)silyl)oxy)-6-(octyloxy)hexyl)(4-hydroxybutyl)amino)hexyl 2-hexyldecanoate]	−14.77 mV	0.107	228.6 nm	97%
